Data published in PMC9134086, “Inhibition of Dipeptidyl Peptidase-4 by Flavonoids: Structure–Activity Relationship, Kinetics and Interaction Mechanism” (Frontiers in Nutrition, 2022).
Several values for one entry are separate records, joined by “and”; a condition that tells them apart may be missing. Identical values can stand only once.

Columns and labels:
[1] = target: T1, DPP-4 (human recombinant) (Homo sapiens, UniProt P27487); test: In vitro assay for DPP-4 inhibitory activity (fluorescence, Gly-Pro-AMC); type: biochemical; conditions: for % Inhibition at 200μM / inhibition at 200 µM: flavonoid 200 μM, mean ± SD, three independent experiments; for inhibition at 200 µM: read-out: % Inhibition at 200μM; for IC50: DPP-4 inhibition, fluorescence method;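 as to all read-outs here: fluorescence of released AMC (excitation 360 nm, emission 460 nm) followed kinetically over 30 min at 37 °C in Tris-HCl pH 8.0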
T1 construct: purchased Sigma Aldrich D3446
T1 sequence (P27487 whole entry): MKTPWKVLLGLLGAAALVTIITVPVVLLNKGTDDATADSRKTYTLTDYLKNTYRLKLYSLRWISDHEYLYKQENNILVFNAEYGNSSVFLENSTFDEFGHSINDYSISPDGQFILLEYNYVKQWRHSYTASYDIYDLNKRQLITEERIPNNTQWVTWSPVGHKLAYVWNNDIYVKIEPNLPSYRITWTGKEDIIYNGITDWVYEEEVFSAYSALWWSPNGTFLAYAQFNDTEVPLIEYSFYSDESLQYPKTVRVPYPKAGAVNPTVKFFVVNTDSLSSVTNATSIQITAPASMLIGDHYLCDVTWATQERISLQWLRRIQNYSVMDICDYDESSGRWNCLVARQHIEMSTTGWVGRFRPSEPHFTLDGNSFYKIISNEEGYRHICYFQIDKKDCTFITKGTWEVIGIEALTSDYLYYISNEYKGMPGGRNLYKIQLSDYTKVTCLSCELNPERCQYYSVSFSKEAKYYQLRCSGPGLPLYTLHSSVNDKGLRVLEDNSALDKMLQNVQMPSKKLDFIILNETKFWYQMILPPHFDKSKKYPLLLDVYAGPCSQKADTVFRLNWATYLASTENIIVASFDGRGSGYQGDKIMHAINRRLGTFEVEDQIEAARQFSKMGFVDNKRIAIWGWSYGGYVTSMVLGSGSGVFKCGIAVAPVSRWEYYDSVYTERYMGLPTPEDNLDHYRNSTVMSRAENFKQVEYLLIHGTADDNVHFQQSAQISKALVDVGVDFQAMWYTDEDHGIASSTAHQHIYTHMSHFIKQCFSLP

[2] = target: T1, DPP-4 (human recombinant); test: Inhibition kinetic analysis (V vs [DPP-4], Lineweaver-Burk, Dixon and Cornish-Bowden plots); type: biochemical; conditions: for Kiu (uncompetitive inhibition constant): Cornish-Bowden equation; for Inhibition type: Lineweaver-Burk, Dixon and Cornish-Bowden plots, Gly-Pro-AMC 50–200 μM, DPP-4 0.42 mU/mL; for reversibility of the inhibition: plots of V vs [DPP-4] 0.21–0.84 mU/mL, 200 μM Gly-Pro-AMC; for Ki: Dixon equation, read-out: Kic (competitive inhibition constant); for 1/Kiu: reciprocal of uncompetitive inhibition constant
[3] = target: T1, DPP-4 (human recombinant); test: Fluorescence quenching experiments (Stern-Volmer, binding constant, thermodynamic parameters); conditions: for Kq (quenching rate constant): τ0 10^−8 s; for ΔH (enthalpy change) / ΔS (entropy change): from Kb at 298 and 310 K;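 as to all read-outs here: intrinsic DPP-4 fluorescence emission scanned 290–500 nm, corrected for flavonoid background and inner-filter absorbance, compared without versus with flavonoid quencher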
DPP-4 [4] = tested on: DPP-4; design: method as in PMID 31441917; conditions: test concentration of 200 μM; cited from earlier work
DPP-4 [5] = tested on: DPP-4; design: method as in PMID 33063510; conditions: different DPP-IV inhibitor screening assay kit; cited from earlier work

| Compound | % Inhibition at 200μM [1] [%] | inhibition at 200 µM [1] [%] | Kiu (uncompetitive inhibition constant) [2] | Inhibition type [2] | reversibility of the inhibition [2] | KSV (Stern-Volmer quenching constant) ([3]; 298 K) | n (number of binding sites) ([3]; 298 K) | ΔG (Gibbs free-energy change) ([3]; 298 K) [kcal/mol] | Kq (quenching rate constant) ([3]; 298 K) | KSV (Stern-Volmer quenching constant) ([3]; 310 K) | n (number of binding sites) ([3]; 310 K) | Kq (quenching rate constant) ([3]; 310 K) | ΔH (enthalpy change) [3] [kcal/mol] | ΔS (entropy change) [3] [J mol^−1K^−1] | IC50 [1] | Ki [2] [µM] | inhibitory percentage (DPP-4 [4]) | also measured |
| --- | --- | --- | --- | --- | --- | --- | --- | --- | --- | --- | --- | --- | --- | --- | --- | --- | --- | --- |
| O=c1c(O[C@@H]2O[C@H](CO)[C@H](O)[C@H](O)[C@H]2O)c(-c2ccc(O)c(O)c2)oc2cc(O)cc(O)c12 [E4, Hyperoside] | 62.10 ±0.16 | > 50 | 14.8 ± 0.22 10^−5 mol L^−1 | Mixed | reversible | 4.83 ± 0.01 ×10^4 L mol^−1 | 1.04 ± 0.02 | -6.6334 | 4.83 ± 0.01 ×10^12 L mol^−1 s^−1 | 4.08 ± 0.01 ×10^4 L mol^−1 | 1.03 ± 0.02 | 4.08 ± 0.01 ×10^12 L mol^−1 s^−1 | -3.3815 | 45.66 | – | – | – | ΔG (Gibbs free-energy change) ([3]; 310 K): -6.7641 kcal/mol |
| O=C(/C=C/c1ccc(O)cc1)c1ccc(O)cc1O [G1, Isoliquiritigenin] | – | > 50 | 26.7 ± 0.34 10^−5 mol L^−1 | – | – | – | – | – | – | – | – | – | -1.901 | – | 150 µM and < 200 µM | 98.2 ± 3.4 | – | – |
| O=c1c(O)c(-c2ccc(O)c(O)c2)oc2cc(O)cc(O)c12 [E23, Quercetin] | – | 39.4 ± 0.58 | – | – | – | – | – | – | – | – | – | – | – | – | – | – | 46 ± 2% | inhibitory percentage relative to rhamnetin (E27) ([1]; ratio of % inhibition at 200 μM, quercetin vs rhamnetin): 1.77 times |
| COc1cc(-c2oc3cc(O)cc(O)c3c(=O)c2O[C@@H]2O[C@H](CO[C@@H]3O[C@@H](C)[C@H](O)[C@@H](O)[C@H]3O)[C@@H](O)[C@H](O)[C@H]2O)ccc1O [E21, Narcissoside] | 57.50 ±1.28 | > 50 | 22.3 ± 0.15 10^−5 mol L^−1 | Mixed | reversible | 7.212 ± 0.01 ×10^4 L mol^−1 | 1.22 ± 0.02 | -8.059 | 7.212 ± 0.01 ×10^12 L mol^−1 s^−1 | 6.389 ± 0.01 ×10^4 L mol^−1 | 1.21 ± 0.02 | 6.389 ± 0.01 ×10^12 L mol^−1 s^−1 | -1.937 | 85.93 | 167 µM and < 200 µM | 116 ± 2.1 | – | 1/Kic ([2]; reciprocal of competitive inhibition constant): 0.86 ± 0.02 10^4 L mol^−1; 1/Kiu [2]: 0.44 ± 0.03 10^4 L mol^−1; ΔG (Gibbs free-energy change) ([3]; 310 K): -8.305 kcal/mol |
| O=C1C[C@@H](c2ccc(O)cc2)Oc2cc(O)cc(O)c21 [C6, Naringenin] | – | < 10 | – | – | – | – | – | – | – | – | – | – | – | – | – | – | lower than 20% | – |
| OCC1OC(Oc2cc3c(O)cc(O)cc3[o+]c2-c2ccc(O)c(O)c2)C(O)C(O)C1O (stereo not shown) [F2, Cyanidin 3-O-glucoside chloride] | 68.05 ±0.15 | > 50 | 18.37 ± 0.24 10^−5 mol L^−1 | Mixed | reversible | 3.64 ± 0.04 ×10^4 L mol^−1 | 1.05 ± 0.01 | -6.577 | 3.64 ± 0.04 ×10^12 L mol^−1 s^−1 | 3.08 ± 0.06 ×10^4 L mol^−1 | 1.04 ± 0.01 | 3.08 ± 0.06 ×10^12 L mol^−1 s^−1 | -1.971 | 64.68 | 81.1 ± 4.14 µM | 74.3 ± 1.2 | – | IC50 (DPP-4 [5]): 8.26 µM; inhibitory percentage relative to cyanidin (F1) ([1]; ratio of % inhibition at 200 μM, cyanidin 3-O-glucoside vs cyanidin): 3.62 times; 1/Kiu [2]: 0.57 ± 0.03 10^4 L mol^−1 |
| O=c1cc(-c2ccc(O)cc2)oc2cc(O)cc(O)c12 [A1, Apigenin] | – | 46.4 ± 1.49 | – | – | – | – | – | – | – | – | – | – | – | – | – | – | 44 ± 2% | – |
| O=C1c2c(O)cc(O)cc2OC(c2ccc(O)c(O)c2)C1O (stereo not shown) [C8, Taxifolin] | – | 19.9 ± 0.65 | – | – | – | – | – | – | – | – | – | – | – | – | – | – | lower than 20% | – |
